{"source": "patent US5112856A", "about": "“Therapeutic treatment of intestinal inflammation by administration of 3,4-dihydro-2H-1-benzopyran derivatives” (Hoffmann-La Roche Inc., priority 1990, dated 1992)", "key": {"[1]": {"tested_on": "antibiotic-induced colitis", "test": "Antibiotic (clindamycin)-induced colitis in hamsters, in vivo", "design": "species or system Male Syrian hamsters (LUG)", "settings": "for activity in clindamycin-induced colitis: oral", "procedure": "Male Syrian hamsters (LUG), weighing 80 to 120 g, were each given a single dose of 175 mg/kg of clindamycin-phosphate or of clindamycin-hydrochlorideintraperitoneally, to induce colitis. Approximately seven hours after injection, the animals were given the test compound orally or intraperitoneally and the therapy was continued twice a day for a period of four more days. For oral administration, the […] was suspended in water or dissolved in dimethylsulfoxide and delivered to the animals by gavage using an oral intubating needle. The effect of the therapy was measured by use of the Hazard Ratio, which is the ratio of the mortality of the animals treated with the test inhibitor compound contained in a vehicle to the mortality of the animals treated with the vehicle containing none of the test inhibitor compound. The mortality was determined for the test inhibitor compound-treated groups and for the vehicle-treated groups, respectively, twice daily, and was evaluated by comparing the survival curves of each group. The Kaplan-Meier estimate of the survival curve was calculated for each group and the Mantel-Cox (logrank) test was used to compare the survival curve of each test inhibitor compound-treated (therapy) group to that of the corresponding vehicle control group. […]"}, "guinea pig colon": {"tested_on": "guinea pig colon", "test": "Carrageenan-induced colitis in guinea pigs, in vivo (water transport in distal colon)", "design": "species or system Male/female guinea pigs (Hartley)", "settings": "oral", "text": "The guinea pig carrageenan-induced colitis biossay has been described by A. B. Onderdonk in Inflammatory Bowel Diseases, Martinus Nijhoff Publ., Boston, Mass., pages 126-134 (1982), and in Human Intestinal Microflora in Health and Disease (D. J. Hentger, ed.), Academic Press, New York, 1983, pages 447-479. The polysaccharide iotacarrageenan, derived from red seaweed, produces a colitis in guinea pigs that resembles ulcerative colitis in humans. Male/female guinea pigs (Hartley), weighing 400 to 650 g, were given a 3% solution of degraded carrageenan in their drinking water on a daily basis. After about 7 days, the animals began to develop diarrhea, ceased to gain weight and became lethargic. After the animals received carrageenan in this manner for 14 days, the diarrhea was quantified by measuring the water transport in the distal colon by single pass perfusion using 14C-polyethylene glycol 4000 (PEG 4000) as a marker. Control animals were given an aqueous drinking solution containing 3% mannitol in place of the carrageenan. Simultaneously, randomly selected animals from each of these two groups were treated orally with the test inhibitor compound, twice daily. […]"}, "LTB4": {"tested_on": "LTB4", "test": "Rat colon mucosa in vitro, short-circuit current: LTB4-induced electrolyte secretion", "settings": "six animals", "text": "(§1) The rat colon mucosa bioassay system is based on the measurement of changes in salt transport across the animal tissue due to absorption or secretion, using the standard short-circuit current technique described by Ussing, et al., Acta Physiol. Scand. 23: 110-127 (1951). Diarrhea is the most common symptom of gastrointestinal inflammation and is present in all types of inflammatory bowel disease. Pantera, et al., Ital. J. Gastroenterol. 13: 24-27 (1981); Sales, et al., Arch. Int. Med. 143: 294-299 (1983); Hodgson, Br. J. Clin. Pharmac. 14: 159-270 (1982). Diarrhea results from decreases in the salt absorption or increases in the salt secretion in the bowel and can be quantified in vitro by the above mentioned method of Ussing et al. In particular, a one-cm segment of colon is removed from animals weighing 200 to 250 g, exposed in vitro to leukotrienes or to bradykinin, which are inducers of salt secretion, and the resulting change in the net salt transport with and without the presence of 6-acetyl-7-[5-(4-acetyl-3 -hydroxy-2-propylphenoxy) pentyloxy]-3,4-dihydro-2H-1-benzopyran-2-carboxylic acid as an inhibitor is measured. Tissues were mounted in pairs in Ussing chambers and short-circuited with automatic voltage clamps (from the University of Iowa Bioengineering Department). A 15-minute period of equilibrium was allowed for the preparation to reach steady state. […]"}, "LTC4": {"tested_on": "LTC4", "test": "Rat colon mucosa in vitro, short-circuit current: LTC4-induced electrolyte secretion", "settings": "six animals", "text": "as §1"}, "LTD4": {"tested_on": "LTD4", "test": "Rat colon mucosa in vitro, short-circuit current: LTD4-induced electrolyte secretion", "settings": "six animals", "text": "as §1"}, "LTE4": {"tested_on": "LTE4", "test": "Rat colon mucosa in vitro, short-circuit current: LTE4-induced electrolyte secretion", "settings": "six animals", "text": "as §1"}, "[2]": {"tested_on": "myeloperoxidase of the rat colon", "test": "Acetic acid-induced colitis in rats, in vivo (colonic myeloperoxidase)", "design": "species or system Male rats (Sprague-Dawley)", "settings": "oral", "text": "The rat acetic acid-induced colitis biossay has been described by J. E. Krawisz, et al. in Amer. J. Proc. Gastro. Col. Rec. Surg. 31: 11-18 (1980), and by P. Sharon and W. F. Stenson in Gastroenterology 88: 55-63 (1985) and 86: 453-460 (1984). Acetic acid-induced colitis is characterized by the movement of inflammatory cells into the colon, with the number of such cells in the mucosa being measured by the activity of myeloperoxidase, a marker enzyme for these cells. Positive desirable activity is indicated by a reduction in the high levels of myeloperoxidase caused by acetic acid. Male rats (Sprague-Dawley), weighing 150 to 300 g, were pretreated twice daily for two days with either the vehicle (water, or dimethylsulfoxide) or the test inhibitor compound suspended in water or dissolved in dimethylsulfoxide and orally administered. […] Twenty four hours after the acetic acid treatment, the animals were sacrificed, the colonic mucosa was surgically removed and homogenized in an aqueous buffer at pH 6 with a Tissumizer or similar device, and myeloperoxidase was measured in the homogenate using o-phenylenediamine as a chromagen, as described by A. Voller, D. E. Bidwell and A. Bartlett in The Enzyme Linked Immunosorbent Assay (ELISA), Zoological Soc., London, 1979, pages 29-30. […]"}, "[3]": {"settings": "10 mg/kg oral, in 0.15 ml water, >1.0 = prolongs survival vs. vehicle"}}, "data": [{"compound": "CCCc1c(OCCCOc2ccc3c(=O)cc(CCC(=O)O)oc3c2CCC)ccc(C(C)=O)c1O", "note": "[Comparison 2, 7-[3-(4-acetyl-3-hydroxy-2-propylphenoxy)propoxy]-4-oxo-8-propyl-4H-1-benzopyran-2-propanoic acid, reference compound]", "values": [{"measurement": "Hazard Ratio", "setting": "[1]; 13 mg/kg oral, in 0.15 ml water, >1.0 = prolongs survival vs. vehicle", "result": 1.68}, {"measurement": "activity in clindamycin-induced colitis", "setting": "[1]; 10 mg/kg", "result": "inactive"}]}, {"compound": "O=C(O)c1cc(/N=N/c2ccc(S(=O)(=O)Nc3ccccn3)cc2)ccc1O", "note": "[sulfasalazine, reference compound]", "values": [{"measurement": "water transport in the colon", "setting": "guinea pig colon; 100 mg/kg, carrageenan-diseased animals (FIG. 4)", "result": "restored the water transport in the colon of the diseased animals from a net secretory level to a level about that of the control animals"}]}, {"compound": "CCCc1c(OCC(O)COc2ccc3c(=O)cc(C(=O)O)oc3c2CCC)ccc(C(C)=O)c1O", "note": "(stereo not drawn) [Comparison 1, 7-[3-(4-acetyl-3-hydroxy-2-propylphenoxy)-2-hydroxypropoxy]-4-oxo-8-propyl-4H-1-benzopyran-2-carboxylic acid, reference compound]", "values": [{"measurement": "Hazard Ratio", "setting": "[1]; [3]", "result": 1.42}, {"measurement": "Hazard Ratio", "setting": "[1]; ip, 10 mg/kg", "result": 2.02}, {"measurement": "activity in clindamycin-induced colitis", "setting": "[1]; 10 mg/kg", "result": "inactive"}]}, {"compound": "CCCc1c(OCCCCCOc2cc3c(cc2C(C)=O)CCC(C(=O)O)O3)ccc(C(C)=O)c1O", "note": "(racemic) [6-acetyl-7-[5-(4-acetyl-3-hydroxy-2-propylphenoxy)pentyloxy]-3,4-dihydro-2H-1-benzopyran-2-carboxylic acid]", "values": [{"measurement": "% Inhibition Against Leukotrienes, LTB4", "setting": "LTB4; 1 μM inhibitor", "result": "44.4 ± 13.1", "unit": "%"}, {"measurement": "% Inhibition Against Leukotrienes, LTB4", "setting": "LTB4; 10 μM inhibitor", "result": "69.6 ± 11.9", "unit": "%"}, {"measurement": "% Inhibition Against Leukotrienes, LTC4", "setting": "LTC4; 1 μM inhibitor", "result": "9.5 ± 19.2", "unit": "%"}, {"measurement": "% Inhibition Against Leukotrienes, LTC4", "setting": "LTC4; 10 μM inhibitor", "result": "57.1 ± 19.7", "unit": "%"}, {"measurement": "% Inhibition Against Leukotrienes, LTD4", "setting": "LTD4; 1 μM inhibitor", "result": "30.8 ± 15.4", "unit": "%"}, {"measurement": "% Inhibition Against Leukotrienes, LTD4", "setting": "LTD4; 10 μM inhibitor", "result": "62.4 ± 10.0", "unit": "%"}, {"measurement": "% Inhibition Against Leukotrienes, LTE4", "setting": "LTE4; 1 μM inhibitor", "result": "29.8 ± 15.0", "unit": "%"}, {"measurement": "% Inhibition Against Leukotrienes, LTE4", "setting": "LTE4; 10 μM inhibitor", "result": "44.2 ± 9.8", "unit": "%"}, {"measurement": "Hazard Ratio", "setting": "[1]; [3]", "result": 3.80}, {"measurement": "Hazard Ratio", "setting": "[1]; 60 mg/kg intraperitoneal, in 0.075 ml PEG400, >1.0 = prolongs survival vs. vehicle", "result": 4.77}, {"measurement": "Hazard Ratio", "setting": "[1]; 60 mg/kg oral, in 0.15 ml water, >1.0 = prolongs survival vs. vehicle", "result": 12.0}, {"measurement": "Hazard Ratio", "setting": "[1]; 100 mg/kg oral, in 0.15 ml water, >1.0 = prolongs survival vs. vehicle", "result": 64.2}, {"measurement": "edema, hemorrhaging, congestion, necrosis, focal erosions, inflammatory cell infiltration of cecum (and colon)", "setting": "[1]; 60 or 100 mg/kg", "result": "In most cases these effects were reduced or abolished"}, {"measurement": "diarrhea", "setting": "[1]; clindamycin-treated hamsters", "result": "reduced the diarrhea"}, {"measurement": "histopathology of the cecum and colon", "setting": "[1]; clindamycin-treated hamsters", "result": "substantially benefited the histopathology of the cecum and colon"}, {"measurement": "survival of clindamycin-treated animals", "setting": "[1]; clindamycin-treated hamsters", "result": "prolonging the survival"}, {"measurement": "Hazard Ratio", "setting": "[1]; ip, 10 mg/kg", "result": 2.87}, {"measurement": "activity in clindamycin-induced colitis", "setting": "[1]; doses ranging from 10 to 100 mg/kg", "result": "active"}, {"measurement": "activity in reducing myeloperoxidase of the rat colon", "setting": "[2]; 30 and 90 mg/kg (FIG. 3)", "result": "active"}, {"measurement": "water transport rate in the colon", "setting": "guinea pig colon; 10 and 30 mg/kg, carrageenan-diseased animals (FIG. 5)", "result": "water transport rates about equal to that of the control animals"}]}, {"compound": "O=C1CCN(c2ccccc2)N1", "note": "[phenidone, reference compound]", "values": [{"measurement": "activity in reducing myeloperoxidase of the rat colon", "setting": "[2]; 100 and 200 mg/kg (FIG. 2)", "result": "active"}]}]}
